Experimental data from patent publication US11414454B2, “Compositions, methods, and systems for affinity-based protein identification and purification” (Auctus Biologies, Inc., priority 2017, dated 2022).
Residues, ends and D or L forms follow the SMILES beside them.

Assays:
[1] = test system: RPtag (large); experiment: Association/dissociation kinetics of RPtag (small) peptides with RPtag (large) by fluorescence anisotropy; assay type: binding, Thermoanaerobacter tengcongensis; details: for koff: LS dissociation, unlabeled competitor peptide; for kon (M^−1 min^−1 ) (×10^7): S*-LS transition, calculated from measured koff and Kd
Description: Panel a depicts representative association rate kinetics traces varying native RPtag small. Rhodamine labeled RPtag small at the indicated concentration was incubated with unlabeled RPtag large and the association measured by fluorescence anisotropy. L-S complex concentration was calculated by the equation (r−rmin)/(rmax−rmin)*[S] where r is the measured anisotropy, rmin is the anisotropy in the absence of any RPtag large, rmax is the anisotropy measured in the presence of at saturating RPtag large, and [S] is the total concentration of RPtag small used in the experiment. […] Dashed cyan lines are simulations of the mechanism shown in f using the rate constants detailed herein. The concentrations in the simulations were multiplied by a correction factor of 0.925, which is well within the 90% purity specification of the purchased peptide.
LS complex was performed by incubating 1000 nM RPtag large with the indicated concentrations of rhodamine labeled RPtag small. At the start of the experiment, 0.1 mM unlabeled native RPtag small was added and fluorescence anisotropy monitored. Data processing was done as in panel a, except the red fits were to the single exponential decay equation y=y0+A*exp(−b*t). As expected, the initial dissociation rates were linear with respect to the LS complex.
Fitting to a line yields a rate constant (koff)=0.0091 min^−1 (FIG. 9 panel e). In good agreement, when the kinetics are fit with a first order rate law, a rate constant of 0.012±0.002 min^−1 (n=15) was observed. […] Panel e is a graph of the initial rates of the traces represented in d. Slope of the fit line is 0.0091 min^−1. Data are mean±SE (n=3).
The library of mutant RPtag(small) peptides, described above, was next analyzed to measure off rates (koff). The on rate was also calculated from measured koff and Kd (S*-LS transition), except instead of using unlabeled native peptide as the competitor, we used unlabeled Nd2,P5A,E18A (the tightest binding RPtag(small) peptide identified). […] However, there were notable exceptions. […] This indicates, without wishing to be limited, that P5 may constrain the structure of the peptide. The increased flexibility imparted to the peptide by the P5A mutation may decrease the energy barrier required for binding/unbinding.
Target sequence in this assay (as listed by the source): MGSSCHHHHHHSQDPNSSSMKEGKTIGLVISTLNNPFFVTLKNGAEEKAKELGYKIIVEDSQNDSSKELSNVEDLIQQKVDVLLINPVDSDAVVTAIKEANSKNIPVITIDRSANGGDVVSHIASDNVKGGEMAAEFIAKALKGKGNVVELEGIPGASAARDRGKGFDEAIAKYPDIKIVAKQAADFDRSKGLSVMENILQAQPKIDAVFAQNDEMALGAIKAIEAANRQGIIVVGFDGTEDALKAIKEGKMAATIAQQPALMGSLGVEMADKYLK

[2] = test system: RPtag (large); experiment: Fluorescence anisotropy Kd of rhodamine labeled RPtag (small) peptides for RPtag (large); assay type: binding, Thermoanaerobacter tengcongensis; details: for Kd: N-terminal rhodamine tagged peptide, unlabeled RPtag (large), 50 mM Tris pH 8.0, 0.005% Tween 20, mean ± SE
Description: 50 nM of RP-Tag Small (see Sequence 3, below) with an N-terminal Rhodamine B label was incubated with increasing concentrations of either RP-Tag Large (see Sequence 2) or Bovine Serum Albumin (BSA) in 50 mM Tris pH 8.0, 150 mM NaCl, 10 mM 2-mercaptoethanol, and 0.005% Tween 20 for 5 min in black 96-well plates at room temperature.
Anisotropy was then measured, and a Kd calculated by fitting the data to the equation f=y0+(ymax−y0)*(Ptot+x+Kd−sqrt((Ptot+x+Kd)^2−4*Ptot*x))/(2*Ptot), where y0 is the baseline anisotropy, ymax is the maximum anisotropy, Ptot is the fixed concentration of labeled peptide used, x is the variable concentration of protein used, and Kd is the measured Kd.
The indicated concentrations of RPtag (large) and an anti-His tag antibody (4E3D10H2/E3 purchased from ThermoFisher Scientific) were incubated with 1 nM rhodamine labeled native RPtag (small) peptide and 6×His peptide (Rhodamine-GHHHHHH), respectively, and fluorescence anisotropy measured. BSA incubated with native rhodamine labeled RPtag(small) is included as a control for non-specific binding. Kd's were calculated according to the equation f=y0+(ymax−y0)*(Ptot+x+Kd−sqrt((Ptot+x+Kd)^2−4*Ptot*x))/(2*Ptot), where y0 is the baseline anisotropy, ymax is the maximum anisotropy, Ptot is the fixed concentration of labeled peptide used, x is the variable concentration of protein used, and Kd is the measured Kd. We measured a Kd of 0.2±0.1 nM for RPtag(large) binding RPtag(small), and a Kd of 6±1 nM for the antibody/6×His tag pair.
Regarding the studies shown in FIG. 14, increasing concentrations of unlabeled RPtag large with the indicated mutations (native, f137d, and f137e) were incubated for 1 h with 1 nM rhodamine labeled RPtag small peptide and the fluorescence anisotropy was measured. Resultant curves were fit with the equation f=y0+(ymax−y0)*(Ptot+x+Kd−sqrt((Ptot+x+Kd)^2−4*Ptot*x))/(2*Ptot), where y0 is the baseline anisotropy, ymax is the maximum anisotropy, Ptot is the fixed concentration of labeled peptide used, x is the variable concentration of protein used, and Kd is the measured Kd. Data are presented here as Ka=1/Kd. Log transformed Ka's were then compared by one-way ANOVA with Holm-Sidak post hoc correction. ***p<0.001, **p<0.01, *p<0.05. data are mean±SEM (n=3-4). Buffer was 50 mM Tris pH 8.0, 0.005% tween20. Proteins were expressed and purified by single step NiNTA chromatography as before. Peptides were synthesized solid-state and handled as previous.

| Compound | koff [1] [s⁻¹] | kon (M^−1 min^−1 ) (×10^7) [1] | effect of alanine mutation on binding affinity to RPtag(large) ([2]; alanine scanning versus native) | Kd [2] [µM] |
| --- | --- | --- | --- | --- |
| GEKIPNFIAAELKLITKENVQ [p9a] | 4e-05 ± 6.7e-06 | 1.4 ± 0.2 ×10^7 M^−1 min^−1 |  |  |
| GEKIPNFIPAELKLITKEN [Cd2] |  | 9.8 ± 0.3 ×10^7 M^−1 min^−1 |  |  |
| ELKLITKA [Nd10, Cd3, e18a] | >0.033 |  |  |  |
| KIANFIPAELKLITK [Nd2, Cd4, p5a] | 0.003 ± 0.00017 | 22 ± 1 ×10^7 M^−1 min^−1 |  |  |
| AELKLITKENVQ [Nd9] | 0.00667 ± 0.00067 | 8.2 ± 0.9 ×10^7 M^−1 min^−1 |  |  |
| FIPAELKLITKE [Nd6, Cd3] | >0.033 |  |  |  |
| IANFIPAELKLITKANVQ [Nd3, p5a, e18a] | 0.000967 ± 3.3e-05 | 9.2 ± 0.4 ×10^7 M^−1 min^−1 |  |  |
| PAELKLITKE [Nd8, Cd3] | >0.033 |  |  |  |
| GEKIPNFIPAELKLITKANVQ [e18a] | 0.000145 ± 6.7e-06 | 16 ± 0.8 ×10^7 M^−1 min^−1 | significantly increased binding affinity |  |
| GEKIPNFIPAELKLITAENVQ [k17a] | 9.5e-05 ± 3.3e-06 | 1.0 ± 0.1 ×10^7 M^−1 min^−1 |  |  |
| KIANFIPAELKLITKA [Nd2, Cd3, p5a, e18a] | 0.003 ± 0.00017 | 33 ± 2 ×10^7 M^−1 min^−1 |  |  |
| CC(C)[C@H](NC(=O)[C@H](CC(N)=O)NC(=O)[C@@H](N)CCC(=O)O)C(=O)N[C@@H](CCC(N)=O)C(=O)O [Nd17, ENVQ] (H-ENVQ-OH; N-terminus and C-terminus assumed) |  |  |  | > 100 |
| GEKIPNAIPAELKLITKENVQ [f7a] | 0.00105 ± 5e-05 | 3.1 ± 0.1 ×10^7 M^−1 min^−1 |  |  |
| GEKIPNFIPAALKLITKENVQ [e11a] | 0.000112 ± 8.3e-06 | 0.46 ± 0.06 ×10^7 M^−1 min^−1 |  |  |
| LKLITKENVQ [Nd11] | 0.02 ± 0.01 | 7.1 ± 3.8 ×10^7 M^−1 min^−1 |  |  |
| GEKIPNFIPAELKAITKENVQ [l14a] | >0.033 |  |  |  |
| KLITKENVQ [Nd12] | >0.033 |  |  |  |
| GEKIPNF [Cd14] |  |  |  | > 100 |
| GEKIPNFIPAELK [Cd8] |  |  |  | > 100 |
| KIPNFIPAELKLITKANAA [Nd2, e18a, v20a, q21a] | 0.000383 ± 1.7e-05 | 3.6 ± 0.3 ×10^7 M^−1 min^−1 |  |  |
| GEKIPNFIPAE [Cd10] |  |  |  | > 100 |
| PAELKLITKENVQ [Nd8] | 0.000917 ± 3.3e-05 | 9.3 ± 0.3 ×10^7 M^−1 min^−1 |  |  |

| Compound | koff [1] [s⁻¹] | kon (M^−1 min^−1 ) (×10^7) [1] | effect of alanine mutation on binding affinity to RPtag(large) ([2]; alanine scanning versus native) | Kd [2] [µM] |
| --- | --- | --- | --- | --- |
| RIANFIPAELKLITKANVQ [Nd2, k3r, p5a, e18a] | 0.000217 ± 1.7e-05 | 3.4 ± 0.1 ×10^7 M^−1 min^−1 |  |  |
| GEKIPNFIPAELKLIAKENVQ [t16a] | 0.00148 ± 5e-05 | 7.5 ± 0.3 ×10^7 M^−1 min^−1 |  |  |
| GEKIPNFIPAELKLITK [Cd4] | 0.00367 ± 0.00033 | 22 ± 2 ×10^7 M^−1 min^−1 |  |  |
| KIPNFIPAELKLITKENVQ [Nd2] | 5.83e-05 ± 1.3e-05 | 5.3 ± 1.3 ×10^7 M^−1 min^−1 |  |  |
| GEKIPNFAPAELKLITKENVQ [i8a] | 0.0015 ± 0.00015 | 8.6 ± 0.9 ×10^7 M^−1 min^−1 |  |  |
| GEKIPNFIPAELKLATKENVQ [i15a] | 0.0183 ± 0.005 | 25 ± 6 ×10^7 M^−1 min^−1 |  |  |
| IPAELKLITKENVQ [Nd7] | 0.0007 ± 0.000167 | 1.8 ± 0.4 ×10^7 M^−1 min^−1 |  |  |
| GEKIPNFIPAEL [Cd9] |  |  |  | > 100 |
| IPNFIPAELKLITKENVQ [Nd3] | 0.0002 ± 1.7e-05 | 8.8 ± 0.3 ×10^7 M^−1 min^−1 |  |  |
| PNFIPAELKLITKENVQ [Nd4] | 0.000467 ± 1.7e-05 | 9.4 ± 0.4 ×10^7 M^−1 min^−1 |  |  |
| KIPNFIPAELKLITK [Nd2, Cd4] | 0.00132 ± 0.0001 | 20 ± 2 ×10^7 M^−1 min^−1 |  |  |
| NFIPAELKLITKENVQ [Nd5] | 0.000933 ± 1.7e-05 | 9.6 ± 0.1 ×10^7 M^−1 min^−1 |  |  |
| GEKAPNFIPAELKLITKENVQ [i4a] | 0.0001 ± 3.3e-06 |  |  |  |
| GEKIPN [Cd15] |  |  |  | > 100 |
| KIPNFIPAELKLITKE [Nd2, Cd3] | 0.000767 ± 3.3e-05 | 8.2 ± 0.3 ×10^7 M^−1 min^−1 |  |  |
| PAELKLITKA [Nd8, Cd3, e18a] | >0.033 |  |  |  |
| ITKENVQ [Nd14] |  |  |  | > 100 |
| KIPNFIPAELKLITKA [Nd2, Cd3, e18a] | 0.000883 ± 3.3e-05 | 40 ± 2 ×10^7 M^−1 min^−1 |  |  |
| KIANFIPAELKLITKE [Nd2, Cd3, p5a] |  | 26 ± 1 ×10^7 M^−1 min^−1 |  |  |
| KENVQ [Nd16] |  |  |  | > 100 |
| GEKIANFIPAELKLITKENVQ [p5a] | 0.0004 ± 3.3e-05 |  |  |  |
| GEKIPNFIPA [Cd11] |  |  |  | > 100 |

| Compound | koff [1] [s⁻¹] | kon (M^−1 min^−1 ) (×10^7) [1] | effect of alanine mutation on binding affinity to RPtag(large) ([2]; alanine scanning versus native) | Kd [2] [µM] |
| --- | --- | --- | --- | --- |
| KIPNFIPAELKLITKANVQ [Nd2, e18a] | 0.000138 ± 1.67e-05 | 6.5 ± 0.7 ×10^7 M^−1 min^−1 |  |  |
| GEKIPNFI [Cd13] |  |  |  | > 100 |
| KIANFIPAELKLITKANAA [Nd2, p5a, e18a, v20a, q21a] | 0.000217 ± 1.7e-05 | 20 ± 1 ×10^7 M^−1 min^−1 |  |  |
| GEKIPNFIPAELKL [Cd7] | >0.033 |  |  |  |
| ELKLITKE [Nd10, Cd3] | >0.033 |  |  |  |
| FIPAELKLITKA [Nd6, Cd3, e18a] | >0.033 |  |  |  |
| FIPAELKLITKENVQ [Nd6] | 0.00108 ± 5e-05 | 12 ± 1 ×10^7 M^−1 min^−1 |  |  |
| GEKIPAFIPAELKLITKENVQ [n6a] | 2.5e-05 ± 5e-06 | 0.45 ± 0.09 ×10^7 M^−1 min^−1 |  |  |
| LITKENVQ [Nd13] | >0.033 |  |  |  |
| EKIPNFIPAELKLITKENVQ [Nd1] | 0.000147 ± 1.7e-06 | 3.4 ± 0.1 ×10^7 M^−1 min^−1 |  |  |
| GEKIPNFIPAELKLI [Cd6] | >0.033 |  |  |  |
| TKENVQ [Nd15] |  |  |  | > 100 |
| GEKIP [Cd16] |  |  |  | > 100 |
| GEKIPNFIPAELKLITKE [Cd3] | 0.002 ± 0.00033 |  |  |  |
| GEAIPNFIPAELKLITKENVQ [k3a] | 8.83e-05 ± 1.2e-05 | 1.1 ± 0.1 ×10^7 M^−1 min^−1 |  |  |
| GEKIPNFIPAELKLIT [Cd5] | 0.0065 ± 0.00383 | 11 ± 7 ×10^7 M^−1 min^−1 |  |  |
| GEKIPNFIPAEAKLITKENVQ [l12a] | 0.00333 ± 0.001 | 4.3 ± 1.2 ×10^7 M^−1 min^−1 |  |  |
| AIANFIPAELKLITKENVQ [Nd2, k3a, p5a] | 0.00015 ± 6.7e-06 |  |  |  |
| ELKLIT [Nd10, Cd5] | >0.033 |  |  |  |
| ELKLITKENVQ [Nd10] | 0.00417 ± 0.00067 | 4.3 ± 0.7 ×10^7 M^−1 min^−1 |  |  |
